Test results: patent US9932325B2 (Denali Therapeutics Inc., priority 2015, dated 2018)
Values joined by “and” are separate entries in the source; they are usually repeats but may differ in a detail not shown here. Equal values may be shown once.

How the values were obtained:
[1] = Metabolic stability in human liver microsomes; assay type: in vitro ADME; conditions: 1 μM compound, 0.5 mg/mL protein, projected hepatic clearance, well-stirred model
Experimental: Metabolic stability of compounds was evaluated in human liver microsomes (from Corning or XenoTech, LLC) using a 96-well plate assay format. Compounds were incubated at 37° C. at 1 μM final concentration in the microsomal matrix (0.5 mg/mL total protein) in the presence or absence of NADPH cofactor. An NADPH regenerating system, comprised of NADP, MgCl2, isocitric acid, and isocitrate dehydrogenase, was used in the assay. Enzymatic reactions were conducted for 0, 5, 10, 20, 30, or 60 min before termination by addition of acetonitrile containing tolbutamide and labetalol internal standards (100 ng/mL). After shaking for 10 min, plates were subjected to centrifugation (4000 rpm at 4° C.) for 20 min and supernatants were mixed 1:3 with HPLC grade water. Samples were analyzed by LC-MS/MS using appropriate MRM transitions for each analyte and internal standard (IS). Analyte/IS peak area ratios were used to determine percent compound remaining at each time point. Intrinsic clearance (Clint; expressed as mL·min^−1·mg^−1) was calculated from the first order elimination constant (k, min^−1) of test article decay and the volume of the incubation. These values were scaled to intrinsic organ clearance (Clint) using human specific scaling factors (48.8 mg microsomal protein per g liver; 25.7 g liver per kg body weight). Organ Clint was subsequently converted to hepatic clearance (CLhep, mL·min-1·kg-1) using the well-stirred model of hepatic elimination, where Qh is human hepatic blood flow (20.7 mL·min-1·kg-1).
CLhep is the projected human clearance in the liver based on the above in vitro assay. A lower value is indicative of less compound being removed by the liver.

LRRK2 G2019S enzyme = LRRK2 G2019S enzyme (Homo sapiens (Human), UniProt Q5S007, G2019S); assay: LRRK2 G2019S TR-FRET biochemical assay (LRRKtide substrate); conditions: 134 μM ATP
Method in brief: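 Kinase and LRRKtide substrate were preincubated with compound 20 minutes at 23° C, then ATP was added and the reaction ran 60 minutes at 23° C. Detection used 2 nM antibody with 10 mM EDTA in TR-FRET dilution buffer, 60 minutes at 23° C, read by TR-FRET.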

MDR1 (P-glycoprotein) = MDR1 (P-glycoprotein) (Homo sapiens (Human), UniProt P08183); assay: MDR1-MDCK permeability, bidirectional assay; assay type: in vitro ADME; conditions: dog, MDR1-MDCK cells, monolayer efflux ratio, pH 7.4, read-out: MDR1 ER
Experimental: The blood brain barrier (BBB) separates circulating blood from the extracellular fluid of the central nervous system (CNS). The passive membrane permeability (Papp) and MDR1 (P-glycoprotein) substrate efflux potential were determined using the MDR1-MDCK cell line as an in vitro model of the effective permeability of a compound through the BBB. A bidirectional assay was conducted in pre-plated MDR1-MDCK cells using a 12 or 96-well plate in the absence or presence of MDR1 inhibitor (GF120918 or Valspodar). Assays were run in duplicate in transport buffer (HBSS, pH 7.4) for 90 or 120 min (minutes) at 37° C., using a test article concentration of 1 μM. Monolayer integrity was confirmed using Lucifer yellow, and appropriate positive controls for passive permeability and MDR1 transport were included in each experiment. Following incubation, samples from donor and receiver compartments were removed and quenched with acetonitrile containing an appropriate internal standard (IS). Protein was precipitated by centrifugation for 10 min at 3220 g, and supernatants were diluted in ultra-pure water (if necessary) prior to analysis by LC-MS/MS using appropriate MRM transitions for analytes and IS. Papp (apparent permeability expressed in cm/sec [centimeter/second]) values were calculated according to the following equation:
[formula] where VR is the solution volume in the receiver chamber (apical or basolateral side), Area is the surface area for the insert membrane), Time is incubation time expressed in seconds, CR is the peak area ratio (analyte/IS) in the receiver chamber, CA is the average of the initial and final concentrations in the donor chamber, and Co is the initial peak area ratio in the donor chamber. Papp was determined in both the apical to basolateral (A→B) and basolateral to apical (B→A) directions.
Monolayer efflux ratios (ER) were derived using the following equation: […]

Sequence of LRRK2 G2019S enzyme (Q5S007 whole entry G2019S): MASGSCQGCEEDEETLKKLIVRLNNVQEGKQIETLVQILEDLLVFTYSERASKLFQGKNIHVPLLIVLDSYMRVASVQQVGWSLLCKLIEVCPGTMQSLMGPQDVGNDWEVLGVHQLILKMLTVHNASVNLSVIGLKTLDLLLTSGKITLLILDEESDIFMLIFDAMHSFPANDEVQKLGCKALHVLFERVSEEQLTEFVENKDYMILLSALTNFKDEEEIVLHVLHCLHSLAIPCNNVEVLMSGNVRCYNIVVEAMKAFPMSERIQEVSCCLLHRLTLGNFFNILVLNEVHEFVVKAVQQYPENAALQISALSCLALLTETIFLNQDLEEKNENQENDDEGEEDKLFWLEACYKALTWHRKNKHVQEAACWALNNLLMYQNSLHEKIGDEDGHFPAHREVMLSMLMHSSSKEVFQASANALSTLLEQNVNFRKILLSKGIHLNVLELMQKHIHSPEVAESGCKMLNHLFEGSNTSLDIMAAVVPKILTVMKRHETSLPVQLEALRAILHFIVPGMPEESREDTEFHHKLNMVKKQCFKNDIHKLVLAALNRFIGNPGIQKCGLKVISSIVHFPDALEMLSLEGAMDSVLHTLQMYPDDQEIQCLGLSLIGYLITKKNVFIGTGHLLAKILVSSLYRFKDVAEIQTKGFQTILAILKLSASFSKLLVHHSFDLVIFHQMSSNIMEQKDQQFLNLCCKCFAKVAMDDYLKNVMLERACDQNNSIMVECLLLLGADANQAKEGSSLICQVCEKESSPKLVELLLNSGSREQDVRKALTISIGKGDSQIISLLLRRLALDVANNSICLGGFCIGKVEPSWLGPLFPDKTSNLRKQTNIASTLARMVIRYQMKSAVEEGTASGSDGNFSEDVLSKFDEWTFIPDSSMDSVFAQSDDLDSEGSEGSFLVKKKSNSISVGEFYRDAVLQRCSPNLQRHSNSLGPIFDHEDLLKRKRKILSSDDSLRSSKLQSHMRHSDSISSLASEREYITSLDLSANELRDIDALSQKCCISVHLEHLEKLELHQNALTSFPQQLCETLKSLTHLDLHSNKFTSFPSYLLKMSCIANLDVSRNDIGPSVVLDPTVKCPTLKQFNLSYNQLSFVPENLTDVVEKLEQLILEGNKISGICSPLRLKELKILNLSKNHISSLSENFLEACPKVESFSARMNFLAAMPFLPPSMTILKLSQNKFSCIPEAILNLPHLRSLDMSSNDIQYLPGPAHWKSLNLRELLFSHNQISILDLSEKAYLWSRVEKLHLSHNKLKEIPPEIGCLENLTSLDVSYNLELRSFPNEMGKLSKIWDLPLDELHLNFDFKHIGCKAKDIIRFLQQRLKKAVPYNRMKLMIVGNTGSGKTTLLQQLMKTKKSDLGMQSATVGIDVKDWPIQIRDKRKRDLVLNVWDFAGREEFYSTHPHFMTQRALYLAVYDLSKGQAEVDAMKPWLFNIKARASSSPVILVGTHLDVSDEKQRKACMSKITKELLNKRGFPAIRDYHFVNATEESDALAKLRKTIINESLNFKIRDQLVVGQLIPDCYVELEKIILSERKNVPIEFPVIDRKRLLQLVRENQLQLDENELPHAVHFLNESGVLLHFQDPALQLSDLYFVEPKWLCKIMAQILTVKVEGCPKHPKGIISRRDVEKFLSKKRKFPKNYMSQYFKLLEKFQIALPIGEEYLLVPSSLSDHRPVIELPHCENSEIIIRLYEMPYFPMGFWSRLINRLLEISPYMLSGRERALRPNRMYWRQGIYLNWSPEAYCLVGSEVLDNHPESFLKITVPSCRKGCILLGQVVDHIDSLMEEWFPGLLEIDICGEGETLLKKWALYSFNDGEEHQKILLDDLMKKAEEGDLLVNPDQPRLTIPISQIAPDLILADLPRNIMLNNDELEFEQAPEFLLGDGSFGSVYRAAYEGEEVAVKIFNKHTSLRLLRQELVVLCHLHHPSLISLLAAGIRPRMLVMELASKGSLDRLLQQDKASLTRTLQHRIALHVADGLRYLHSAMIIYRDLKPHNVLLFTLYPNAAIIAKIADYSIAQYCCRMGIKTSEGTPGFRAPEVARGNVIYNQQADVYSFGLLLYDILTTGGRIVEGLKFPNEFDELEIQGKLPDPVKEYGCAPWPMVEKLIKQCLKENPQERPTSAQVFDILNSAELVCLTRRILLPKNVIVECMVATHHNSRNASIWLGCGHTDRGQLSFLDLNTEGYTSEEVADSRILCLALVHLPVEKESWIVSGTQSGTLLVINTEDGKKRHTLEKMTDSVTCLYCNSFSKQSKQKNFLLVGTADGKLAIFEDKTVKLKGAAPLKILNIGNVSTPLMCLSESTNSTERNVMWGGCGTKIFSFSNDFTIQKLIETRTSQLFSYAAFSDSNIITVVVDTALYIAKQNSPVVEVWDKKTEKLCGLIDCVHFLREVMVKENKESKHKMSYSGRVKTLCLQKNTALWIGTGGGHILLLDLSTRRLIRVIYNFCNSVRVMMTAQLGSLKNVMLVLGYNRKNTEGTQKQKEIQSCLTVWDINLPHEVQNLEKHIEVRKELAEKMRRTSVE
Sequence of MDR1 (P-glycoprotein) (P08183 whole entry): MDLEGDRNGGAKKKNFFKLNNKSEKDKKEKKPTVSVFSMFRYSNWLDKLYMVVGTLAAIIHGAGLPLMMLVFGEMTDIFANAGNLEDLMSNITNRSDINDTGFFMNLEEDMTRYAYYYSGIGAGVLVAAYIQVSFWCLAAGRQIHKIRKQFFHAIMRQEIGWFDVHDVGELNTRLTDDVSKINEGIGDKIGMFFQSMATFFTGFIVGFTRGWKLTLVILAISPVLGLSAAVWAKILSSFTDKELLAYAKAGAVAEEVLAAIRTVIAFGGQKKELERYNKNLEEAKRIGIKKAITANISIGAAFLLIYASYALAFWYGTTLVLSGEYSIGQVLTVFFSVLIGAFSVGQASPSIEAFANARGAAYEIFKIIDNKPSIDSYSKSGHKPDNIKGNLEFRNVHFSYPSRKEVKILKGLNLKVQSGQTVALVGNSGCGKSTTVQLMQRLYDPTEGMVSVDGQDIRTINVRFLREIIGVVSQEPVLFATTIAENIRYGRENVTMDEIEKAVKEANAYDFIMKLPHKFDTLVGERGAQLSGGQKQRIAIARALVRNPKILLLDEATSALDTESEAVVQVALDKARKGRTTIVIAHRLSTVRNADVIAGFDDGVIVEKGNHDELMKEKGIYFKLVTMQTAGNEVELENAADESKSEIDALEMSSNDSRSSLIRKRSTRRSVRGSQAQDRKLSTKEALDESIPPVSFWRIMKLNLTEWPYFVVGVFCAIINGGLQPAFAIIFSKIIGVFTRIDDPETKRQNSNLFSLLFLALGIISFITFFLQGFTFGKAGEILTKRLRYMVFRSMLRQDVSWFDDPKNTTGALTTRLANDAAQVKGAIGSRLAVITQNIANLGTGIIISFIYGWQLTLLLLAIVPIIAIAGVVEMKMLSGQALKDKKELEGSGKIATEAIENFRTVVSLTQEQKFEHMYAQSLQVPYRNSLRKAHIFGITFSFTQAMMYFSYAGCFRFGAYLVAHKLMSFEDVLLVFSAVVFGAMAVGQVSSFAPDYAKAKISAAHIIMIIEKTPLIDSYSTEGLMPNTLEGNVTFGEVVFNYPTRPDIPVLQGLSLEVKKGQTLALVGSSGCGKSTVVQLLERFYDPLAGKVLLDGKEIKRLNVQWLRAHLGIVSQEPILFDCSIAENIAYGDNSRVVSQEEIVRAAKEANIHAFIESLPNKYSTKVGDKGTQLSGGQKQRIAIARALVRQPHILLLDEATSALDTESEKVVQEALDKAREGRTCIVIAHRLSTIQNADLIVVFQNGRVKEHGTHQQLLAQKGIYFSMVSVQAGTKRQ

Compound	Human liver microsomes CLhep [1]	IC50 (LRRK2 G2019S enzyme)	efflux ratio at 1 μM (MDR1 (P-glycoprotein))
CCNc1nc(Nc2cn(C3(C)CCOC3=O)nc2C2CC2)ncc1C(F)(F)F (single isomer, unassigned) [Compound 104]	11.59 mL/min/kg	< 30 nM and 0.96 nM	
CCNc1nc(Nc2cn(C3(C)CCOC3=O)nc2C2CC2)ncc1Br (single isomer, unassigned) [Compound 114]	16.508 mL/min/kg	< 30 nM and 1.05 nM	
CNc1nc(Nc2cn(C3(C)CCOC3=O)nc2C2CC2)ncc1C(F)(F)F (single isomer, unassigned) [Compound 122]	9.856 mL/min/kg	< 30 nM and 0.72 nM	
CCNc1nc(Nc2cnn(C3CC(C#N)C3)c2C)ncc1C(F)(F)F (centres unmarked) [Compound 27]	7.81 mL/min/kg		0.88
[2H]C([2H])([2H])n1nc(C(C)(C)n2nccn2)cc1Nc1ncc(C(F)(F)F)c(NCC)n1 [Compound 34, N4-Ethyl-N2-[1-(^2H3)methyl-3-[2-(2H-1,2,3-triazol-2-yl)propan-2-yl]-1H-pyrazol-5-yl]-5-(trifluoromethyl)pyrimidine-2,4-diamine]	0.75 mL/min/kg	< 30 nM and 2.31 nM	4.8
[2H]C([2H])([2H])n1nc(C(C)(C)n2nccn2)cc1Nc1ncc(C(F)(F)F)c(NC2CC2)n1 [Compound 68]	3.18 mL/min/kg	< 30 nM and 2.23 nM	4.01
CCNc1nc(Nc2cc(C(C)(C)n3nccn3)nn2C2CC2)ncc1C(F)(F)F [Compound 78, N2-[2-cyclopropyl-5-[1-methyl-1-(triazol-2-yl)ethyl]pyrazol-3-yl]-N4-ethyl-5-(trifluoromethyl)pyrimidine-2,4-diamine]	4.81 mL/min/kg	< 30 nM and 3.69 nM	2
CCNc1nc(Nc2cn(C(C)(C)C#N)nc2C2CC2)ncc1Br [Compound 93]	17.663 mL/min/kg	< 30 nM and 1.87 nM	
CCNc1nc(Nc2cn(C(C)(C)C#N)nc2C2CC2)ncc1C(F)(F)F [Compound 118]	7.81 mL/min/kg	< 30 nM and 1.55 nM	0.83

Continued, values first:

Human liver microsomes CLhep [1]	IC50 (LRRK2 G2019S enzyme)	efflux ratio at 1 μM (MDR1 (P-glycoprotein))	Compound
7.81 mL/min/kg	< 30 nM and 1.21 nM		CCNc1nc(Nc2cc(C3(C)CCOC3=O)nn2C2CC2)ncc1C(F)(F)F (single isomer, unassigned) [Compound 143]
11.077 mL/min/kg	< 30 nM and 1.22 nM		CCNc1nc(Nc2cc(C3(C)CCOC3=O)nn2C2CC2)ncc1Br (single isomer, unassigned) [Compound 150]
5.519 mL/min/kg	< 30 nM and 1.95 nM		CNc1nc(Nc2cc(C3(C)CCOC3=O)nn2C2CC2)ncc1C(F)(F)F (single isomer, unassigned) [Compound 155]
19.9 mL/min/kg	< 30 nM and 1.47 nM	42	CCNc1nc(Nc2cc(C3(C)CCn4ncnc43)nn2C2CC2)ncc1C(F)(F)F (single isomer, unassigned) [Compound 172]
2.237 mL/min/kg	< 30 nM and 4.98 nM		CCNc1nc(Nc2cc(C(C)(C)C#N)nn2C2CC2)ncc1C(F)(F)F [Compound 131]
13.508 mL/min/kg	< 30 nM and 3.94 nM		CCNc1nc(Nc2cc(C(C)(C)C#N)nn2C2CC2)ncc1Br [Compound 141]
0 mL/min/kg	< 30 nM and 5.91 nM	86	CNc1nc(Nc2cn(C(C)(C)c3ncn(C)n3)nc2C)ncc1C(F)(F)F [Compound 218]
